# US11109593B2, “Isoxazolin-5-one derivative and herbicide containing same as active ingredient” (HOKKO CHEMICAL INDUSTRY CO., LTD., priority 2017, dated 2021)
# Assays:
# Format in all cases: in vivo
# [1] = system: southern crabgrass; assay: Test Example 4: herbicidal effect test by treatment of leave and stem in dry field farming (seven days after seeding); conditions: 120 g/10a active ingredient; emulsion sprayed seven days after seeding; evaluated 14 days after treatment
# How it was run: (§1)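 Weeds were seeded at 20 seeds per species into the top 1 cm of alluvial upland soil in pots, then sprayed 7 days after seeding with water-diluted emulsifiable concentrate at 100 L/10 a, giving 120 g active ingredient/10 a. Duplicate pots; herbicidal rate (%) was 14 days post-treatment, from dry weight versus untreated.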
# [2] = system: Echinochloa crus-galli; assay: as above; conditions: 120 g/10a active ingredient; emulsion sprayed seven days after seeding; evaluated 14 days after treatment
# How it was run: as §1
# [3] = system: Amaranthus viridis; assay: as above; conditions: 120 g/10a active ingredient; emulsion sprayed seven days after seeding; evaluated 14 days after treatment
# How it was run: as §1
# [4] = system: Chenopodium album; assay: as above; conditions: 120 g/10a active ingredient; emulsion sprayed seven days after seeding; evaluated 14 days after treatment
# How it was run: as §1
# [5] = system: Echinochloa crus-galli; assay: Test Example 1: herbicidal effect test by treatment of rice paddy soil (immediately after seeding); conditions: 120 g/10a active ingredient, dry weight vs untreated area, 14 days after treatment
# How it was run: (§2)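 Applied at 120 g a.i./10 ares as diluted emulsion dropped into flooded (~3 cm) paddy soil pots right after sowing seeds 0–1 cm deep; greenhouse, two replicates. At day 14, dry weight of treated versus untreated plants gives % herbicidal rate.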
# [6] = system: Scirpus juncoides; assay: as above; conditions: 120 g/10a active ingredient, dry weight vs untreated area, 14 days after treatment
# How it was run: as §2
# [7] = system: broad leaf weeds (Lindernia pyxidaria and Monochoria vaginalis); assay: as above; conditions: 120 g/10a active ingredient, dry weight vs untreated area, 14 days after treatment
# How it was run: as §2
# [8] = system: Echinochloa crus-galli; assay: Test Example 2: herbicidal effect test by treatment during growing period in paddy rice cultivation (seven days after seeding); conditions: 120 g/10a active ingredient, assessed 14 days after treatment, dry weight vs untreated area
# How it was run: (§3)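 Greenhouse flooded-pot test, seeds sown in puddled paddy soil; emulsion applied into water 7 d after seeding, 120 g a.i./10 a. Dry-weight-based herbicidal rate at 14 d, n=2.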
# [9] = system: Scirpus juncoides; assay: as above; conditions: 120 g/10a active ingredient, assessed 14 days after treatment, dry weight vs untreated area
# How it was run: as §3
# [10] = system: broad leaf weeds (Lindernia pyxidaria and Monochoria vaginalis); assay: as above; conditions: 120 g/10a active ingredient, assessed 14 days after treatment, dry weight vs untreated area
# How it was run: as §3
# [11] = system: southern crabgrass; assay: Test Example 3: herbicidal effect test by treatment of dry field farming soil (one day after seeding); conditions: 120 g/10a active ingredient, evaluated 14 days after treatment
# How it was run: (§4)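 Compound emulsions are sprayed on the soil surface one day after sowing (120 g a.i. per 10 ares) before weeds emerge. Effect is expressed as percent dry-weight reduction versus untreated controls 14 days post-treatment.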
# [12] = system: Echinochloa crus-galli; assay: as above; conditions: 120 g/10a active ingredient, evaluated 14 days after treatment
# How it was run: as §4
# [13] = system: Amaranthus viridis; assay: as above; conditions: 120 g/10a active ingredient, evaluated 14 days after treatment
# How it was run: as §4
# [14] = system: Chenopodium album; assay: as above; conditions: 120 g/10a active ingredient, evaluated 14 days after treatment
# How it was run: as §4
SMILES,"herbicidal effect (herbicidal rate), southern crabgrass [1] [%]","herbicidal effect (herbicidal rate), Echinochloa crus-galli [2] [%]","herbicidal effect (herbicidal rate), Amaranthus viridis [3] [%]","herbicidal effect (herbicidal rate), Chenopodium album [4] [%]",Herbicidal rate (%) Echinochloa crus-galli [5] [%],Herbicidal rate (%) Scirpus juncoides [6] [%],Herbicidal rate (%) Lindernia pyxidaria [7] [%],Herbicidal rate (%) Monochoria vaginalis [7] [%],Herbicidal rate (%) Echinochloa crus-galli [8] [%],Herbicidal rate (%) Scirpus juncoides [9] [%],Herbicidal rate (%) Lindernia pyxidaria [10] [%],Herbicidal rate (%) Monochoria vaginalis [10] [%],"herbicidal rate, southern crabgrass [11] [%]","herbicidal rate, Echinochloa crus-galli [12] [%]","herbicidal rate, Amaranthus viridis [13] [%]","herbicidal rate, Chenopodium album [14] [%]"
Cc1c(Cc2ccccc2N(S(=O)(=O)C(F)(F)F)S(=O)(=O)C(F)(F)F)c(=O)on1C(C)C1CC1 (stereo not shown) [Compound 1-992],50,90,40,40,100,100,90,100,90,80,50,90,90,90,40,40
Cc1c(Cc2ccccc2N(S(=O)(=O)C(F)(F)F)S(=O)(=O)C(F)(F)F)c(=O)on1CC1(C)CC1 [Compound 1-993],40,60,40,40,100,100,100,100,90,90,50,60,80,90,40,40
Cc1c(Cc2ccccc2N(S(=O)(=O)C(F)(F)F)S(=O)(=O)C(F)(F)F)c(=O)on1CCOCC(C)C [Compound 1-1000],40,60,40,0,100,100,80,90,90,90,40,70,80,60,40,40
Cc1c(Cc2ccccc2N(S(=O)(=O)C(F)(F)F)S(=O)(=O)C(F)(F)F)c(=O)on1CC[S+](C)[O-] (stereo not shown) [Compound 1-1005],40,60,40,40,90,90,60,70,90,90,70,90,40,60,40,40
Cc1c(Cc2ccccc2N(S(=O)(=O)C(F)(F)F)S(=O)(=O)C(F)(F)F)c(=O)on1CCS(C)(=O)=O [Compound 1-1006],40,40,40,40,70,90,70,60,80,90,60,80,60,80,60,60
Cc1c(Cc2ccccc2N(S(=O)(=O)C(F)(F)F)S(=O)(=O)C(F)(F)F)c(=O)on1Cc1ccc(F)cc1 [Compound 1-1014],40,70,40,50,90,90,90,100,90,90,80,80,70,90,40,40
CCC(c1ccccc1)n1oc(=O)c(Cc2ccccc2N(S(=O)(=O)C(F)(F)F)S(=O)(=O)C(F)(F)F)c1C (stereo not shown) [Compound 1-1038],60,90,40,40,90,90,90,90,90,90,60,80,90,90,0,0
CCCC(c1ccccc1)n1oc(=O)c(Cc2ccccc2N(S(=O)(=O)C(F)(F)F)S(=O)(=O)C(F)(F)F)c1C (stereo not shown) [Compound 1-1039],90,90,40,40,90,90,90,80,100,80,70,80,90,90,0,0
Cc1c(Cc2ccccc2N(S(=O)(=O)C(F)(F)F)S(=O)(=O)C(F)(F)F)c(=O)on1C(c1ccccc1)C(C)C (stereo not shown) [Compound 1-1040],90,90,50,40,100,90,100,90,100,70,60,60,100,100,100,80
CCCCC(c1ccccc1)n1oc(=O)c(Cc2ccccc2N(S(=O)(=O)C(F)(F)F)S(=O)(=O)C(F)(F)F)c1C (stereo not shown) [Compound 1-1041],50,40,60,40,100,90,90,90,90,70,70,70,80,70,50,50
